From ChEMBL document CHEMBL1137293, “Discovery of oxadiazoyl tertiary carbinamine inhibitors of beta-secretase (BACE-1)” (J Med Chem, 2006)

Molecular target: Beta-secretase 1 (Homo sapiens, UniProt P56817)
Test: Inhibition of BACE1

Sequence of Beta-secretase 1 (P56817 whole entry): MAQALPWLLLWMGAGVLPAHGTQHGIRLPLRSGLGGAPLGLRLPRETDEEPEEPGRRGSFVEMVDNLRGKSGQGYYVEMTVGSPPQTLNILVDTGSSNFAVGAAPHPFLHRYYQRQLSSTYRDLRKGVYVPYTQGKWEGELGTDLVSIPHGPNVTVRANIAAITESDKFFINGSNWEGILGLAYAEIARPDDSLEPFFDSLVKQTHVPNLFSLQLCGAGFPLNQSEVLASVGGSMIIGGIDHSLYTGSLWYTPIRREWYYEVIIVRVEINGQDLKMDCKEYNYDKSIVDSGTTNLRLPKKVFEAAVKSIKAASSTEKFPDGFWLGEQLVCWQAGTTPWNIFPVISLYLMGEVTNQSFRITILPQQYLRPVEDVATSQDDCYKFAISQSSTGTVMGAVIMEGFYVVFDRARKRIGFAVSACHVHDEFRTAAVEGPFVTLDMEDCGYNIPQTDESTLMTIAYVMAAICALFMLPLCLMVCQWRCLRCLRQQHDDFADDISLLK

Row | Structure (SMILES) | IC50
1 | C[C@@H](NC(=O)c1cc(C2=NC(CO)(Cc3ccccc3)CO2)cc(N(C)S(C)(=O)=O)c1)c1ccc(F)cc1 (stereo not given in full) | 12.5 µM
2 | C[C@@H](NC(=O)c1cc(COC(=O)[C@](C)(N)Cc2ccccc2)cc(N(C)S(C)(=O)=O)c1)c1ccc(F)cc1 | 0.027 µM
3 | C[C@@H](NC(=O)c1cc(COC[C@](C)(N)Cc2ccccc2)cc(N(C)S(C)(=O)=O)c1)c1ccc(F)cc1 | 0.43 µM

Continued, values first:

Row | IC50 | Structure (SMILES)
4 | 2.7 µM | C[C@@H](NC(=O)c1cc(C(=O)NC(CO)(CO)Cc2ccccc2)cc(N(C)S(C)(=O)=O)c1)c1ccc(F)cc1
5 | 1.37 µM | C[C@@H](NC(=O)c1cc(COC[C@@](N)(CO)Cc2ccccc2)cc(N(C)S(C)(=O)=O)c1)c1ccc(F)cc1
